In general, Ki refers to the equilibrium dissociation constant of an inhibitor or competing ligand from its target.

Here are results for 36 compounds from PubChem BioAssay AID2027 (NMMLSC, 2009).

In the test the target is Ras-related C3 botulinum toxin substrate 1 (Homo sapiens) (UniProt P63000). In words: analog inhibition of wildtype Rac1 nucleotide binding – biochemical, oxadiazole analogs, multiplex bead flow cytometry, SAR follow-up (AID 2027). The following applies: GST-Rac1 beads, Bodipy-FL-GTP binding, Ki calculated from EC50.

SMILES strings stand for the structures.

For the compound `COc1ccc(-c2noc(CCC(=O)N3CCN(c4ccccc4Cl)CC3)n2)cc1`, the Ki is 310 nM.
Consider `COc1ccc(-c2noc(CCC(=O)N3CCN(c4ccccc4OC)CC3)n2)cc1`, for which the inhibition constant Ki is 210 nM.
`Cc1ccc(C)c(N2CCN(C(=O)CCc3nc(-c4ccccc4Cl)no3)CC2)c1`: the Ki is 110 nM.
In the case of `Cc1ccc(C)c(N2CCN(C(=O)CCc3nc(-c4ccccc4F)no3)CC2)c1`, the inhibition constant (Ki) was 170 nM.
On to `Cc1ccc(C)c(N2CCN(C(=O)CCc3nc(-c4ccc(F)cc4)no3)CC2)c1`, for which the inhibition constant Ki is 120 nM.
On to `Cc1ccc(C)c(N2CCN(C(=O)CCc3nc(-c4ccccc4Br)no3)CC2)c1`, for which the Ki is 160 nM.
As to `Cc1ccc(C)c(N2CCN(C(=O)CCc3nc(-c4ccccc4C)no3)CC2)c1`, the inhibitory constant (Ki) was 160 nM.
To `COc1ccccc1-c1noc(CCC(=O)N2CCN(c3cc(C)ccc3C)CC2)n1` belongs 1410 nM.
Then `Cc1ccc(-c2noc(CCC(=O)N3CCN(c4cc(C)ccc4C)CC3)n2)cc1`, with 300 nM; and `COc1ccc(-c2coc(CCC(=O)N3CCN(c4cc(C)ccc4C)CC3)n2)cc1`, with 210 nM; and `Cc1ccc(C)c(N2CCN(C(=O)CCc3nc(-c4ccc(C(F)(F)F)cc4)no3)CC2)c1`, with 200 nM.
To `COc1ccc(-c2noc(CCC(=O)N3CCN(c4ccccc4F)CC3)n2)cc1` belongs 100 nM.
In the case of `Cc1ccc(C)c(N2CCN(C(=O)CCc3nc(-c4cccc(F)c4)no3)CC2)c1`, the inhibitory constant (Ki) is 140 nM.
With `COc1ccc(-c2noc(CCC(=O)N3CCN(c4ccc(OC)cc4)CC3)n2)cc1`, the inhibitory constant (Ki) was 50 nM.
In the case of `COc1cccc(-c2noc(CCC(=O)N3CCN(c4cc(C)ccc4C)CC3)n2)c1`, the inhibition constant (Ki) is 570 nM.
To `Cc1ccc(C)c(N2CCN(C(=O)CCc3nc(-c4cccc(C(F)(F)F)c4)no3)CC2)c1` belongs 230 nM; to `Cc1ccc(C)c(N2CCN(C(=O)CCc3nc(-c4ccc(Br)cc4)no3)CC2)c1`, 280 nM.
To `Cc1ccc(C)c(N2CCN(C(=O)CCc3nc(-c4cccc(Br)c4)no3)CC2)c1` belongs 160 nM; to `COc1ccc(-c2noc(CCC(=O)N3CCN(c4ccccc4C(F)(F)F)CC3)n2)cc1`, 160 nM.
To `COc1ccc(-c2noc(CCC(=O)N3CCN(c4ccc(F)cc4)CC3)n2)cc1` belongs 150 nM.
For the compound `COc1ccc(-c2noc(CCC(=O)N3CCN(c4cccc(C)c4C)CC3)n2)cc1`, the inhibition constant Ki was 120 nM.
Take `Cc1ccc(C)c(N2CCN(C(=O)CCc3nc(-c4ccccc4)no3)CC2)c1`: the inhibition constant Ki was 150 nM.
To `Cc1ccc(C)c(N2CCN(C(=O)CCc3nc(-c4cccc(Cl)c4)no3)CC2)c1` belongs 460 nM; to `COc1ccc(-c2noc(CCC(=O)N3CCC(c4cc(C)ccc4C)CC3)n2)cc1`, 110 nM.
In the case of `COc1ccc(-c2noc(CCC(=O)N3CCN(c4cc(C)ccc4C)CC3)n2)cc1`, the inhibitory constant (Ki) is 470 nM.
To `COc1ccc(-c2noc(CC(=O)N3CCN(c4cc(C)ccc4C)CC3)n2)cc1` belongs 700 nM; to `COc1ccc(-c2noc(CCCCC(=O)N3CCN(c4cc(C)ccc4C)CC3)n2)cc1`, 1960 nM; to `Cc1ccc(C)c(N2CCN(C(=O)CCc3nc(-c4ccc(Cl)cc4)no3)CC2)c1`, 170 nM.
Regarding `COc1ccc(-c2noc(CCC(=O)N3CCN(c4ccccc4C)CC3)n2)cc1`, the inhibition constant Ki was 130 nM.
With `COc1ccc(-c2noc(CCCC(=O)N3CCN(c4cc(C)ccc4C)CC3)n2)cc1`, the Ki was 350 nM.
As for `COc1ccc(-c2noc(CCC(=O)N3CCN(c4ccc(Br)cc4)CC3)n2)cc1`, the inhibition constant (Ki) was 20 nM.
For `Cc1ccc(C)c(N2CCN(C(=O)CCc3nc(-c4ccccc4C(F)(F)F)no3)CC2)c1`, the Ki was 200 nM.
Turning to `Cc1cccc(-c2noc(CCC(=O)N3CCN(c4cc(C)ccc4C)CC3)n2)c1`, the Ki is 110 nM.
Then `COc1ccc(-c2noc(CCC(=O)N3CCN(c4ccc(C)cc4)CC3)n2)cc1`, with 250 nM; and `Cc1ccc(C)c(N2CCN(C(=O)CCc3nc(-c4ccc(N(C)C)cc4)no3)CC2)c1`, with 260 nM; and `COc1ccc(-c2noc(CCC(=O)N3CCN(c4ccccc4Br)CC3)n2)cc1`, with 160 nM.
